Results as given in patent US20230322771A1, “HETEROCYCLIC GLP-1 AGONISTS” (Gasherbrum Bio, Inc., priority 2020, published 2023).

Target: GLP-1 Receptor (Homo sapiens, UniProt P43220)
Assay: GLP-1R agonist cAMP stimulation assay (HEK293/GLP1R/CRE-LUC cells, HTRF cAMP dynamic 2 kit)
Format: cell-based
Settings: HEK293/CRE-Luc cell line (HDB) stably expressing GLP-1 Receptor; 30 min incubation at 37° C.; read-out: GLP1R cAMP Stimulation DR: EC50 (nM) [Species: Human, Assay Cell Line: HDB]
Method: Activation of GLP-1 receptor is known to stimulate cyclic AMP (cAMP) production in cells which indicates primary coupling to the Gαs subunit of the G protein heterotrimeric complex.
To optimize functional activity directed toward Gαs coupling, a HEK293/CRE-Luc cell line developed by HDB stably expressing the GLP-1 Receptor was used. 200× concentration of compound working solutions were prepared (Agilent Technologies Bravo) with ½ log serial dilution in 384-well Echo LDV plate (Labcyte, Cat #LP-0200). 50 nL/well 200× concentration of compound working solutions were moved to 384-well white low volume plate (Greiner, Cat #784075) using Labcyte ECHO550. 1×10^5 cells/mL HEK293/GLP1R/CRE-LUC(HD Biosciences) cell suspensions prepared with assay buffer[DPBS containing 0.5 mM IBMX(Sigma, Cat #15879) and 0.1% BSA(GENVIEW, Cat #FA016-100 g)], 10 uL cell suspensions were added to each well of previous generated assay plate which already contains 50 nl compound at 200× concentration using ThermoFisher Multidrop Combi(1000 cells/well). Seal the plate and incubate at 37° C. with 5% CO2 for 30 min.
After incubation the cAMP assay signal was generated using cAMP dynamic 2 Kit (Cisbio). 5 μL cAMP-d2 working solution was added to each well, followed with 5 μL Anti-cAMP antibody-cryptate working solution added to each well using ThermoFisher Multidrop Combi. Incubate at room temperature for 1 hour protected from light. Read the fluorescence at 665 and 615 nm with Reader PerkinElmer EnVision.
% Activity=100%×(mean RLU of test sample−mean RLU of vehicle control)/(mean RLU of MAX control−mean RLU of vehicle control))

Chain of GLP-1 Receptor (P43220 24-463): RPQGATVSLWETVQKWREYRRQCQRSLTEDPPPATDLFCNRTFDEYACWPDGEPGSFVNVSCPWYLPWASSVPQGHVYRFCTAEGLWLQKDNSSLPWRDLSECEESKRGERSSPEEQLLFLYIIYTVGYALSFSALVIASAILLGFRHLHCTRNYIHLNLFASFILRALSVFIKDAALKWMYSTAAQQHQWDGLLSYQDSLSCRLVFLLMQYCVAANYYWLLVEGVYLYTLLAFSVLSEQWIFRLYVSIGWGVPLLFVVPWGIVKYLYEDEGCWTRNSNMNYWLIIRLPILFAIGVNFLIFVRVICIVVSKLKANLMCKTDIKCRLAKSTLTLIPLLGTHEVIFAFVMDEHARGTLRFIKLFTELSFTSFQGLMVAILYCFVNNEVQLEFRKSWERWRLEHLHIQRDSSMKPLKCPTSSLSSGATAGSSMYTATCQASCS

EC50: 0.55 nM
Structure (SMILES): CCS(=O)(=O)C(C)c1ccc(-n2ccn(-c3c4c(nn3-c3cc(C)c(F)c(C)c3)CCN(C(=O)c3cc5cc(C6CCOCC6)ccc5n3C3(c5noc(=O)[nH]5)CC3)[C@H]4C)c2=O)c(F)c1 (stereo partly drawn) [Compound 113a, 3-(1-(2-((4S)-3-(3-(4-(1-(ethylsulfonyl)ethyl)-2-fluorophenyl)-2-oxo-2,3-dihydro-1H-imidazol-1-yl)-2-(4-fluoro-3,5-dimethylphenyl)-4-methyl-4,5,6,7-tetrahydro-2H-pyrazolo[4,3-c]pyridine-5-carbonyl)-5-(tetrahydro-2H-pyran-4-yl)-1H-indol-1-yl)cyclopropyl)-1,2,4-oxadiazol-5(4H)-one]
